The values that follow come from patent US6977264B2, “Substituted piperidines and methods of use” (Amgen Inc., priority 2001, dated 2005).

Where a name gives a salt, the structure may show the parent alone.

Turning to `CS(=O)(=O)Nc1ccccc1C1CCN(C(=O)[C@@H](Cc2ccc(Cl)c(Cl)c2)NC(=O)[C@@H]2Cc3ccccc3CN2)CC1` (as salt: HCl) [Example 10, ((3S)(3-1,2,3,4-Tetrahydroisoquinolyl))-N-[(1R)-1-[(3,4-dichlorophenyl)methyl]-2-(4-{2-[(methylsulfonyl)-amino]phenyl}piperidyl)-2-oxoethyl]carboxamide], the melting point is 181 °C (dec.).

`Cn1ccn(-c2ccccc2C2CCN(C(=O)[C@@H](Cc3ccc(Cl)cc3)NC(=O)[C@@H]3Cc4ccccc4CN3)CC2)c1=O` (as salt: HCl) [Example 17, ((3S)(3-1,2,3,4-Tetrahydroisoquinolyl))-N-((1R)-1-[(4-chlorophenyl)methyl]-2-{4-[2-(3-methyl-2-oxo(4-imidazolinyl))phenyl]piperidyl}-2-oxoethyl)carboxamide]: the melting point is 178 °C (dec.).

For the compound `CS(=O)(=O)N(CC1CC1)c1ccccc1C1CCN(C(=O)[C@@H](Cc2ccc(Cl)cc2)NC(=O)[C@@H]2Cc3ccccc3CN2)CC1` (as salt: HCl) (hydrate or solvate) [Example 11, N-[(1R)-1-[(4-Chlorophenyl)methyl]-2-(4-{2-[(cyclopropylmethyl)-(methylsulfonyl)amino]-phenyl}piperidyl)-2-oxoethyl]((3S)(3-1,2,3,4-tetrahydroisoquinolyl))carboxamide], the melting point lay in the range of 190 to 200 °C.

As for `Cl.O=C(N[C@H](Cc1ccc(Cl)cc1)C(=O)N1CCC(c2ccccc2-n2cc[nH]c2=O)CC1)[C@@H]1Cc2ccccc2CN1`, the melting point is 191 °C (dec.).

The melting point is the temperature, or range, at which the solid turns liquid.
